Test results as given in ChEMBL document CHEMBL3124752, “Small molecule disruptors of the glucokinase-glucokinase regulatory protein interaction: 1. Discovery of a novel tool compound for in vivo proof-of-concept” (J Med Chem, 2014).
pEC50: −log10 of the molar value. Values belong to the molecule of their own block, whether it stands above or below them.

How the values were obtained:
[1] = molecular target: T1, Glucokinase regulatory protein (Rattus norvegicus, UniProt Q07071); test: Inhibition of GKRP-GK interaction in rat primary hepatocytes assessed as translocation of GK from nucleus to cytoplasm preincubated for 20 mins followed by glucose addition measured after 40 mins by fluorescence assay; type: cell-based, Hepatocyte
T1 sequence (Q07071 whole entry): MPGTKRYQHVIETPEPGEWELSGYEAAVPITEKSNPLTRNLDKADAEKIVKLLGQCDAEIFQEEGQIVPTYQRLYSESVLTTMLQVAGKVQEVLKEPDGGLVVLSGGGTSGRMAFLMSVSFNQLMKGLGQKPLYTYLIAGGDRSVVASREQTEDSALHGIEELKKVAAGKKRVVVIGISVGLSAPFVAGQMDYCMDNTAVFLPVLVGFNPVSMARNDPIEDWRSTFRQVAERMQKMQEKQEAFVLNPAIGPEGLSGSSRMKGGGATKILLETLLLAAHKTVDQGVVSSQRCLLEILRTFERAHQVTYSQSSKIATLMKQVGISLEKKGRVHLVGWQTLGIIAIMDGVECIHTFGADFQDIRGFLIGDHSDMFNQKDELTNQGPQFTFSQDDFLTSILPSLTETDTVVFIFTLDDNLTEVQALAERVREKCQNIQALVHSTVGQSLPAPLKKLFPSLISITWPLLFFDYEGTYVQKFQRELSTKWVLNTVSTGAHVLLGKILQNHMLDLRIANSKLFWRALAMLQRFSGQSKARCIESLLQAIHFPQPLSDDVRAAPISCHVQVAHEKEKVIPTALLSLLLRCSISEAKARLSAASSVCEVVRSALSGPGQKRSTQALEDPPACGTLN

[2] = Cmax in Sprague-Dawley rat at 10 mg/kg, po; type: ADME, organism-based; design: dose 10 mg/kg, route oral; conditions: in vivo
Rattus norvegicus [3] = species: Rattus norvegicus; test: Toxicity in Zucker diabetic fatty rat assessed as change in plasma insulin level; type: organism-based; conditions: in vivo
Rattus norvegicus [4] = species: Rattus norvegicus; test: fCmax in Sprague-Dawley rat; type: ADME, organism-based; conditions: in vivo
Rattus norvegicus [5] = test: Toxicity in Wistar rat assessed as induction of hypoglycemia at 100 mg/kg, po; type: organism-based; design: dose 100 mg/kg, route oral; conditions: in vivo
Hexokinase-4 = molecular target: T2, Hexokinase-4 (Homo sapiens, UniProt P35557); test: Activation of human glucokinase
T2 sequence (P35557 whole entry): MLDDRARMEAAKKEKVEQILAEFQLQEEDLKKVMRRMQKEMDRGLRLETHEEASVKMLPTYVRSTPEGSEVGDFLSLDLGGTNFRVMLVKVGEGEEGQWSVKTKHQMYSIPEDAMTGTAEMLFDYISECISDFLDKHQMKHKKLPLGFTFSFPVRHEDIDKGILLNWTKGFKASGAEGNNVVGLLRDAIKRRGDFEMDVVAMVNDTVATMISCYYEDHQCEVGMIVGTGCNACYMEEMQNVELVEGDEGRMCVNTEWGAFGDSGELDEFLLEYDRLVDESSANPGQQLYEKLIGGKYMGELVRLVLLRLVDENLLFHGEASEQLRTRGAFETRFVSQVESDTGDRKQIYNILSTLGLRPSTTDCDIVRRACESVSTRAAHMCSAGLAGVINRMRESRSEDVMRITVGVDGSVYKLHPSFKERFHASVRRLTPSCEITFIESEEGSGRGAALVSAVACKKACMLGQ

Rattus norvegicus [6] = test: fCmax in Wistar rat at 100 mg/kg, po; type: ADME, organism-based; design: dose 100 mg/kg, route oral; conditions: in vivo
Rattus norvegicus [7] = species: Rattus norvegicus; test: Toxicity in Zucker diabetic fatty rat assessed as change in plasma triglyceride level; type: organism-based; conditions: in vivo
[8] = Fraction unbound in Sprague-Dawley rat plasma at 2 mg/kg, iv and 10 mg/kg, po; type: ADME, organism-based; conditions: other: intravenous and oral
[9] = Intrinsic clearance in Sprague-Dawley rat liver microsomes at 1 uM after 30 mins in presence of NADPH; type: ADME; conditions: read-out: CLH
[10] = Oral bioavailability in Sprague-Dawley rat at 10 mg/kg; type: ADME, organism-based; conditions: in vivo
[11] = Volume of distribution at steady state in Sprague-Dawley rat at 2 mg/kg, iv; type: ADME, organism-based; design: dose 2 mg/kg, route intravenous; conditions: in vivo, read-out: Vdss
[12] = Clearance in Sprague-Dawley rat at 2 mg/kg, iv; type: ADME, organism-based; design: dose 2 mg/kg, route intravenous; conditions: in vivo

Structure (SMILES): O=S(=O)(c1cccs1)N1CCN(c2ccc(C(O)(C(F)(F)F)C(F)(F)F)cc2)[C@@H](CC2CCOCC2)C1
- pEC50 [1]: 5.26

Structure (SMILES): C[C@@](O)(c1ccc(N2CCN(S(=O)(=O)c3cccs3)C[C@@H]2CC2CCOCC2)cc1)C(F)(F)F
- pEC50 [1]: 6.05

Structure (SMILES): O=S(=O)(c1cccs1)N1CCN(c2ccc(C(O)(C(F)(F)F)C(F)(F)F)cc2)CC1
- Cmax [2]: 350 nM
- Vd [11]: 6.81 L/kg
- clearance [12]: 44 mL/min/kg
- pEC50 (Hexokinase-4): < 4.30
- fraction unbound [8]: 0.0062
- bioavailability [10]: 28%

Structure (SMILES): O=S(=O)(c1cccs1)N1CCN(c2ccc(C(O)(C(F)(F)F)C(F)(F)F)cc2)[C@@H](CN2CCOCC2)C1
- pEC50 [1]: 5.40

Further lines, with some results ahead:

- Cmax [2]: 110 nM
- fCmax (Rattus norvegicus [4]): 0.004 µM
- pEC50 [1]: 7.09
- pEC50 (Hexokinase-4): < 4.30
- fCmax (Rattus norvegicus [6]): 0.056 µM
- fraction unbound [8]: 0.037
- microsomal CLint at 1 µM [9]: 608 µL/min/mg
- bioavailability [10]: 7.86%
Structure (SMILES): C[C@H]1COCCN1C[C@H]1CN(S(=O)(=O)c2cccs2)CCN1c1ccc([C@@](C)(O)C(F)(F)F)cc1
- Activity (Rattus norvegicus [3]): Non-toxic
- Activity (Rattus norvegicus [5]): Toxic
- Activity (Rattus norvegicus [7]): Non-toxic

- pEC50 [1]: 5.32
Structure (SMILES): C[C@](O)(c1ccc(N2CCN(S(=O)(=O)c3cccs3)C[C@@H]2CC2CCOCC2)cc1)C(F)(F)F

- pEC50 [1]: 6.66
Structure (SMILES): C[C@H]1COCCN1C[C@H]1CN(S(=O)(=O)c2cccs2)CCN1c1ccc([C@](C)(O)C(F)(F)F)cc1

- pEC50 [1]: 5.74
Structure (SMILES): C[C@H]1COCCN1C[C@H]1CN(S(=O)(=O)c2cccs2)CCN1c1ccc(C(O)(C(F)(F)F)C(F)(F)F)cc1
